Molecular target: T1, prostanoid receptor subtype (human EP4) (Homo sapiens, UniProt P35408)
T1 construct: expressed in transfected cells; host or cells: COS-7 cells (membrane fraction)
Experiment: Binding assay using membrane preparation with the expression of prostanoid receptor subtype
Settings: test compound at 1.0×10^−8 M (10 nM); competition with [^3H]-PGE2 10 nM; membrane fraction of COS-7 cells transfected with human EP4
Procedure: The radioactivity associated with the filter was measured by liquid scintillation counting.
The following buffer was used in all reactions.

T1 sequence (P35408 whole entry): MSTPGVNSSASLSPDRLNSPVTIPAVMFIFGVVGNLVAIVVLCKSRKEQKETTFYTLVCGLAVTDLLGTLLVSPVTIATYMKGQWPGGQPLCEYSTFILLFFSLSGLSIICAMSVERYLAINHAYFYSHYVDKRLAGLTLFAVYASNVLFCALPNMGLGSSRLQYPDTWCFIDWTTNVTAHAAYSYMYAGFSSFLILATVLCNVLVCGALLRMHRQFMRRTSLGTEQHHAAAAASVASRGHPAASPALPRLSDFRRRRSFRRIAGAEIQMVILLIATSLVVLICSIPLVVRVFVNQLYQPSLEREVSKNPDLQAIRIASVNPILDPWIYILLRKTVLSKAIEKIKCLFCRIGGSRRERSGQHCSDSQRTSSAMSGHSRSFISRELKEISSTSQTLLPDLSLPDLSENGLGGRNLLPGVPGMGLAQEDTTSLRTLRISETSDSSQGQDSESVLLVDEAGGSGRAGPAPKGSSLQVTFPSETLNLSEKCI

inhibition at 0.01 µM: ≥ 80%
SMILES: O=C(O)CCCCCNC(=O)[C@H](CCCNC(=O)OCc1ccccc1)NC(=O)c1cc2ccccc2o1 [Example 23, Sodium 6-{(2S)-2-[(1-benzofuran-2-yl-carbonyl)-amino]-5-[benzyloxycarbonylamino]pentanoylamino}-hexanoate]

Source: US20070142638A1, “Ornithine derivatives as prostaglandin e2 agonists or antagonists” (Astellas Pharma Inc., priority 2003, published 2007)
